The nature of this data set: in vitro. The conditions noted are these: human, hela cells, % viability.
On to `CCc1nc(CN2CCN(C(=O)Nc3ccccc3C)CC2)cs1` [CBK305817], for which the viability – broadly, a read-out of living cells in per cent, often relative to untreated cells – at 28.5 h, 10 µM was 87.5%.
Consider `c1ccc(C(NCc2nnc(-c3ccco3)o2)C2CCC2)cc1` (stereo not shown) [CBK305818], for which the viability at 28.5 h, 10 µM was determined as 84.7%.
The value for `CC(NC(=O)CCC1CCCC1)c1nc(-c2ccncc2)cs1` (stereo not shown) [CBK305819] was 86.9%; that for `CCOC(=O)c1cccc(S(=O)(=O)NC(C)Cn2cncn2)c1` (stereo not shown) [CBK305820] was 95.9%.
Consider `CN(C)CC1CN(c2nc(-c3ccncc3)nc3c2CCC3)CCO1` (stereo not shown) [CBK305824], for which the viability at 28.5 h, 10 µM stood at 83%.
For the compound `Cc1cccc(OCCNC(=O)CN2CCCC2c2cnn(C)c2)c1` (stereo not shown) [CBK305826], the viability at 28.5 h, 10 µM stood at 81%.
Take `CC1CCCCC12NC(=O)N(Cc1csc(-c3cccs3)n1)C2=O` (stereo not shown) [CBK305829]: the viability at 28.5 h, 10 µM is 98.4%.
For `Cc1sc2ncn(CC(=O)NCCCN3CCCCC3)c(=O)c2c1C` [CBK305831], the viability at 28.5 h, 10 µM is 96.7%.
Take `CCC1CCCCN1C(=O)Cn1cnc2c(Cl)cc(Cl)cc2c1=O` (stereo not shown) [CBK305833]: the viability at 28.5 h, 10 µM came to 90%.
The value for `CCN(CC(=O)NCc1ccc(Cl)cc1)S(=O)(=O)c1ccc(OC)cc1` [CBK305836] was 92.6%.
Take `COc1ccccc1CN(C)C(C)C(=O)Nc1ccc(S(N)(=O)=O)cc1` (stereo not shown) [CBK305839]: the viability at 28.5 h, 10 µM stood at 90.1%.
The value for `CC(C(=O)Nc1ccc(S(N)(=O)=O)cc1)N(C)Cc1ccccc1F` (stereo not shown) [CBK305840] was 105%; that for `CCN(CC(=O)NCc1ccc(F)cc1)S(=O)(=O)c1ccccc1C#N` [CBK305842] was 91.1%.
For the compound `CCCn1c(SCC(=O)N2CCc3ccccc32)nc(O)cc1=O` [CBK305843], the viability at 28.5 h, 10 µM came out at 95.4%.
Regarding `CCn1cc(C(=O)N2CCC(C(=O)OC)CC2)c(=O)c2ccc(C)nc21` [CBK305848], the viability at 28.5 h, 10 µM turned out to be 110%.
`CCN(CC(=O)NC(C)C)Cc1csc(-c2ccc(F)cc2)n1` [CBK305849]: the viability at 28.5 h, 10 µM stood at 117%.
For `COCCn1c(SCC(=O)N2CCNC2=O)nc2ccccc21` [CBK305851] the value was 97.3%; for `Cc1cc(C)n(CCCNC(=O)Cn2cnc3sc(C)c(C)c3c2=O)n1` [CBK305852], 76.2%; for `Cc1ccnc2nc(C(=O)OCC(=O)Nc3ccc4c(c3)CCC4)nn12` [CBK305853], 82.1%.
As for `CCCC(=O)Nc1ccc(-c2csc(NC(=O)C3CCCO3)n2)cc1` (stereo not shown) [CBK305854], the viability at 28.5 h, 10 µM was found to be 77.8%.
For `Cc1ccccc1Nc1nc(N)nc(CN2CC(C)OC(C)C2)n1` (stereo not shown) [CBK305856], the viability at 28.5 h, 10 µM was 105%.
As to `O=C(CSc1nnnn1C1CC1)Nc1ccc(CN2CCOCC2)cc1` [CBK305857], the viability at 28.5 h, 10 µM came to 99.2%.
Take `O=C1NC2(CCCCCC2)C(=O)N1Cc1coc(-c2cccs2)n1` [CBK305858]: the viability at 28.5 h, 10 µM was determined as 94.2%.
`CS(=O)(=O)N1CCCc2cc(-c3csc(N)n3)ccc21` [CBK305859]: the viability at 28.5 h, 10 µM came out at 86.4%.
As to `CCCNC(=O)Cn1cnc2sc(C)c(C)c2c1=O` [CBK305863], the viability at 28.5 h, 10 µM was 88.8%.
As to `CCn1c(SCC(=O)NC2CC2)nc2ccccc21` [CBK305864], the viability at 28.5 h, 10 µM stood at 117%.
Consider `Cc1c(C(C)N)cnn1-c1ccc(C#N)cc1` (stereo not shown) [CBK305869], for which the viability at 28.5 h, 10 µM came out at 80.9%.
As to `Cc1cc2nc(NCC3CCCO3)c3ccccc3n2n1` (stereo not shown) [CBK305871], the viability at 28.5 h, 10 µM was determined as 99.6%.
For the compound `O=C(Cn1cnc2c(Cl)cc(Cl)cc2c1=O)N1CCCCCC1` [CBK305874], the viability at 28.5 h, 10 µM stood at 92%.
Consider `Cc1ccnc(NC(=O)C2CCCN(C(=O)OC(C)(C)C)C2)c1` (stereo not shown) [CBK305875], for which the viability at 28.5 h, 10 µM was found to be 82.7%.
Regarding `CC1CCC(N(C)Cc2nc3sc4c(c3c(=O)[nH]2)CCC4)CC1` (stereo not shown) [CBK305876], the viability at 28.5 h, 10 µM amounted to 88.7%.
With `COc1ccc(C)cc1CC(=O)N1CCc2c(sc3ncnc(N)c23)C1` [CBK305878], the viability at 28.5 h, 10 µM was 83.4%.
The value for `O=C(Cn1ccc(=O)[nH]c1=O)Nc1ccc(OCC(F)(F)F)cc1` [CBK305879] was 98%.
For `CCc1nn2c(=O)cc(CN3C(=O)NC(C)(c4ccco4)C3=O)nc2s1` (stereo not shown) [CBK305880] the value was 114%.
For `COc1ccc(CCNC(=O)CCn2cncn2)cc1` [CBK305881] the value was 105%; for `O=C(Cn1cc(Br)ccc1=O)NC1CCN(CCc2ccccc2)CC1` [CBK305887], 99.5%; for `CCN(Cc1ccc(C#N)cc1F)C(=O)NC(C)c1nncn1C` (stereo not shown) [CBK305888], 119%.
For `Cc1nc(C)n(C2CN(S(=O)(=O)c3ccc4scnc4c3)C2)n1` [CBK305889], the viability at 28.5 h, 10 µM amounted to 95.6%.
The value for `CCc1onc(C)c1NC(=O)NC1CC2(CCCC2)Oc2ccccc21` (stereo not shown) [CBK305890] was 97.6%; that for `COC(=O)CCSc1nc(C)nc2c1c(=O)n(C)c(=O)n2CC(C)C` [CBK305891] was 82.7%.
The value for `O=C(NCCCn1ccnc1)N1CCN(Cc2ccc(Cl)cc2)CC1` [CBK305894] was 101%.
For `O=C(CN1CCCC1c1cccs1)Nc1cccc(C(=O)NC2CC2)c1` (stereo not shown) [CBK305895], the viability at 28.5 h, 10 µM amounted to 98.5%.
The value for `CC1CCc2c(sc3ncnc(SCC(=O)N(C)CCC#N)c23)C1` (stereo not shown) [CBK305896] was 106%; that for `CN(Cc1ccccc1N1CCCC1)C(=O)Cc1cn2ccsc2n1` [CBK305897] was 78%.
For the compound `CN(CC(=O)NCc1ccc(Cl)cc1)S(=O)(=O)Cc1ccc(C#N)cc1` [CBK305899], the viability at 28.5 h, 10 µM was 92.3%.
`O=C(Cn1nnc2ccccc2c1=O)N1CCCC(C(F)(F)F)C1` (stereo not shown) [CBK305900]: the viability at 28.5 h, 10 µM stood at 80.5%.
Turning to `CC(=O)Nc1cccc(C(=O)OCC(=O)N2CCC(C)CC2)c1` [CBK305905], the viability at 28.5 h, 10 µM was 98.3%.
Turning to `CCC1CCCCN1Cc1nc2c(c(=O)n(C)c(=O)n2C)n1CCOC` (stereo not shown) [CBK305912], the viability at 28.5 h, 10 µM turned out to be 104%.
Consider `CCc1ncc2c(n1)CN(Cc1cc(=O)n3cccc(C)c3n1)CC2` [CBK305914], for which the viability at 28.5 h, 10 µM stood at 84.6%.
For `O=C(NCCN1CCN(C(=O)Nc2ccccc2)CC1)C1CCCC1` [CBK305915], the viability at 28.5 h, 10 µM was 95.8%.
In the case of `CN(C(=O)c1cc[nH]n1)C1CCN(c2ncnc3ccccc23)CC1` [CBK305916], the viability at 28.5 h, 10 µM stood at 79%.
On to `Cc1cc(C)n(C(C)C(=O)N2CCC(Nc3cccnc3)CC2)n1` (stereo not shown) [CBK305917], for which the viability at 28.5 h, 10 µM turned out to be 94.2%.
For `Cc1ccc(Cc2cnc(NC(=O)C3CNC(=O)N3)s2)cc1F` (stereo not shown) [CBK305919] the value was 97.8%; for `Cc1cc(C)n(CC2CCCN2C(=O)CCCc2ccccn2)n1` (stereo not shown) [CBK305920], 105%.
In the case of `CCn1cc(NS(=O)(=O)c2ccc(N3CCCC3=O)cc2)cn1` [CBK305922], the viability at 28.5 h, 10 µM is 85.3%.
For `CCOc1ccc(Cl)cc1CCNC(=O)NC(C)c1nnnn1C` (stereo not shown) [CBK305923] the value was 89.2%.
As for `O=C(NS(=O)(=O)c1cccc(-c2nnco2)c1)C1CC1C1CCCCC1` (stereo not shown) [CBK305924], the viability at 28.5 h, 10 µM was 90.8%.
As to `Cc1nc(CNC(=O)NC2CCCN(c3ccn(C)n3)C2=O)c(C)s1` (stereo not shown) [CBK305926], the viability at 28.5 h, 10 µM was determined as 95%.
The value for `Cc1cccc(CN2CCC(NC(=O)c3cn(C(C)(C)C)nn3)CC2)c1` [CBK305927] was 92%; that for `Cc1ccc(C(=O)NCC(c2ccccc2Cl)N2CCOCC2)c(=O)[nH]1` (stereo not shown) [CBK305928] was 99.3%; that for `CCCn1c(SCC(=O)N2CCOCC2)nc2ccc(Br)cc2c1=O` [CBK305929] was 83%.
For `N#CCCn1cc(C(=O)N2CCCCC2)c(-c2ccccc2)n1` [CBK305931] the value was 100%.
As for `CN(C)C(=O)CSc1nc2cc(Cl)ccc2c(=O)n1CC1CCCO1` (stereo not shown) [CBK305932], the viability at 28.5 h, 10 µM is 97.3%.
`CCOCCCNC(=O)c1cccc(S(=O)(=O)N2CCCC2)c1` [CBK305934]: the viability at 28.5 h, 10 µM turned out to be 104%.
Consider `CC(Sc1nc2cc(Cl)ccc2c(=O)n1CC1CCCO1)C(N)=O` (stereo not shown) [CBK305935], for which the viability at 28.5 h, 10 µM was 99.6%.
For `CNC(=O)CSc1nc2cc(Cl)ccc2c(=O)n1CC1CCCO1` (stereo not shown) [CBK305937], the viability at 28.5 h, 10 µM is 86.9%.
The value for `Cc1ccc(-c2nn(CCC#N)cc2C(=O)N2CCOCC2)cc1` [CBK305939] was 96.2%; that for `COc1cccc(-c2nn(CCC#N)cc2C(=O)N2CCCCC2)c1` [CBK305942] was 101%; that for `Cc1nc(-c2cccnc2)[nH]c(=O)c1CC(=O)N1CCSCC1` [CBK305944] was 90.7%.
For the compound `CC(C(=O)Nc1ccc(S(N)(=O)=O)cc1)N(C)Cc1cccs1` (stereo not shown) [CBK305945], the viability at 28.5 h, 10 µM was 88.8%.
On to `CC1CCc2c(sc3ncnc(SCC(=O)N(C)C)c23)C1` (stereo not shown) [CBK305946], for which the viability at 28.5 h, 10 µM is 92.9%.
For `Cc1nn(C)c2ncc(S(=O)(=O)NC(C)c3cccc(F)c3)cc12` (stereo not shown) [CBK305948] the value was 94.9%; for `CC(=O)N1CCc2cc(Nc3ncnc4c3cnn4CCC#N)ccc21` [CBK305950], 101%.
The value for `Cc1cccn2c(=O)cc(CN3CCC(c4ccn[nH]4)CC3)nc12` [CBK305951] was 93.2%; that for `CCOC(=O)C(Cc1ccccc1)NC(=O)c1ccc(C)nc1` (stereo not shown) [CBK305952] was 89.6%.
For the compound `CC1CCCN(CC(C)NC(=O)Cn2cnc3ccc(F)cc3c2=O)C1` (stereo not shown) [CBK305953], the viability at 28.5 h, 10 µM was determined as 91.5%.
`CCCN1CCC(NC(=O)c2cccc(S(N)(=O)=O)c2)CC1` [CBK305956]: the viability at 28.5 h, 10 µM is 90.6%.
For `CCN(C)Cc1cccc(CNc2ncnc3c2cnn3CCC#N)c1` [CBK305959], the viability at 28.5 h, 10 µM was 92.2%.
`CCc1noc(CN2CCC(c3c[nH]c4ccc(OC)cc34)CC2)n1` [CBK305960]: the viability at 28.5 h, 10 µM is 84.1%.
Take `CCOC(=O)C(CNC(=O)c1c(CC)noc1C)Cc1ccccc1` (stereo not shown) [CBK305961]: the viability at 28.5 h, 10 µM worked out at 90.8%.
`CCCc1c(C(=O)N2CCN(c3cnccn3)CC2)cnn1C` [CBK305962]: the viability at 28.5 h, 10 µM amounted to 99%.
Regarding `Cc1nc(S(=O)(=O)N2CCC(C(=O)N3CCCCC3)CC2)cn1C` [CBK305963], the viability at 28.5 h, 10 µM was 89.4%.

The record behind these values is article PMC12040169 (PLOS Biology, 2025).
